Assay [1] addresses 3CL^pro (SARS-CoV-2) (Severe acute respiratory syndrome coronavirus 2, UniProt P0DTD1). As to the kind of experiment: biochemical. As to conditions: for Mode of inhibition (Lineweaver–Burk plot): 3CL^pro, Vmax unchanged, Km increased with inhibitor concentration. Format: biochemical.
Assay [2] addresses 3CL^pro (UniProt P0DTD1). As to the kind of experiment: Cell-based 3CLpro cleavage inhibition assay (dual luciferase, Vero-E6 cells). Further details: species or system SARS-CoV-2.
For assay [3], the target named is PL^pro (SARS-CoV-2) (Severe acute respiratory syndrome coronavirus 2, UniProt P0DTD1). As to the kind of experiment: biochemical. Format: biochemical. As to conditions: for Mode of inhibition (Lineweaver–Burk plot): PL^pro, Vmax unchanged, Km increased with inhibitor concentration.
The target of assay [4] is PL^pro (UniProt P0DTD1). As to the kind of experiment: Cell-based PLpro cleavage inhibition assay (dual luciferase, Vero-E6 cells). Further details: species or system SARS-CoV-2.
For assay [5], the system named is SARS-CoV-2. As to the kind of experiment: Cytopathic effect (CPE) reduction assay. In kind it is cell-based. As to conditions: for CPE reduction / inhibitory activity against SARS-CoV-2 (in words): no concentration stated. On the procedure:
The CPE reduction assay was performed according to the previously reported method. Briefly, the cells were seeded with 5 × 10^4 cells/well in a 96-well plate and incubated at 37 °C for 48 h. A total of 100 µL of the virus was treated in each well using DMEM media that was FBS free and 1% antibiotic to infect a 0.01 multiplicity of infection (MOI) and incubated for an additional 1 h at 37 °C. Subsequently, the infected cells were treated with samples after removing the virus and 72 h of incubation was performed, and the MTT solution was added and allowed to stand for a 4 h incubation period. The formazan crystals were dissolved and the absorbance was measured.
For orientation: Protection from cytopathic effect is a common read-out in antiviral testing.

Assay [6] concerns the target 3CL^pro (UniProt P08659+P0DTD1). As to the kind of experiment: Cell-based 3CLpro cleavage inhibition assay (dual luciferase, Vero-E6 cells). Also noted: species or system SARS-CoV-2. The conditions noted are these: cell-based.
The target in assay [7] is PL^pro (UniProt P08659+P0DTD1). As to the kind of experiment: Cell-based PLpro cleavage inhibition assay (dual luciferase, Vero-E6 cells). Also noted: species or system SARS-CoV-2. As to conditions: cell-based.
Setting [8] is: cell-free cleavage of 3CL^pro, fluorogenic substrate, read-out: IC50 Value.
[9] abbreviates: cell-free cleavage of PL^pro, fluorogenic substrate, read-out: IC50 Value.
[10] abbreviates: at 6.25 µM, compared to Dieckol.

Like-named read-outs stand apart in the source and are kept apart here.

Chain of PL^pro (UniProt P0DTD1) (P08659 whole entry, looked up, other chains not shown): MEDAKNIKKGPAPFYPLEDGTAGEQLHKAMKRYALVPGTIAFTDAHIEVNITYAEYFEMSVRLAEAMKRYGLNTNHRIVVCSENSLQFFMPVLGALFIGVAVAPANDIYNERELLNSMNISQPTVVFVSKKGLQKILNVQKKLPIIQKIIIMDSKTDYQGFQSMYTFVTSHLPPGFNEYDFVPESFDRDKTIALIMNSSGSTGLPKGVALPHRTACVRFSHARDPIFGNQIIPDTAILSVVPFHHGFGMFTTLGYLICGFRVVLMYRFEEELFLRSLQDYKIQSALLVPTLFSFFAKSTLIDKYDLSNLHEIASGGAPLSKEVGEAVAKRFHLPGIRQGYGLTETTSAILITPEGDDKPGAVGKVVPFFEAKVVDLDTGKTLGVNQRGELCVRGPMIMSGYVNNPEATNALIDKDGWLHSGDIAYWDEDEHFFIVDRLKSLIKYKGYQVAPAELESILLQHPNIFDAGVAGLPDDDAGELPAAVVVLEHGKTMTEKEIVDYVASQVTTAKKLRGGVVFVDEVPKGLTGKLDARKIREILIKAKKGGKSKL
Chain of 3CL^pro (UniProt P0DTD1) (P08659 whole entry, looked up, other chains not shown): as above
Chain of PL^pro (UniProt P08659+P0DTD1) (P08659 whole entry, looked up, other chains not shown): as above
Chain of 3CL^pro (UniProt P08659+P0DTD1) (P08659 whole entry, looked up, other chains not shown): as above

For the compound `Oc1cc(O)cc(Oc2c(O)cc(O)c3c2Oc2c(O)cc(Oc4c(O)cc(Oc5c(O)cc(O)c6c5Oc5c(O)cc(O)cc5O6)cc4O)cc2O3)c1` [Dieckol], the IC50 (commonly the concentration at which inhibition is half-maximal) in assay [1] was found to be 5.49 ± 0.092 µM; in assay [3] it was 19.74 ± 0.09 µM. For the same compound, the “Mode of inhibition (Lineweaver–Burk plot)” value (shortened to “Mode of inhibition”) in assay [1] and in assay [3] was “competitive inhibitors” throughout. Also, the “Cell-based inhibitory activity against proteolytic activity (in words)” value (from here on “Cell-based inhibitory activity”) in assay [2] was “significant and dose-dependent inhibitory activities”; in assay [4], “significant and dose-dependent inhibitory activities”. Besides, in assay [5], the “CPE reduction / inhibitory activity against SARS-CoV-2 (in words)” value (from here on “CPE reduction / inhibitory activity”) is recorded as “dose-dependent inhibitory activity”.

On to `Oc1cc(O)cc(Oc2cc(O)c(Oc3c(O)cc(O)cc3Oc3cc(O)c(Oc4cc(O)cc(O)c4Oc4cc(O)cc(O)c4Oc4cc(O)cc(O)c4Oc4cc(O)c(Oc5c(O)cc(O)cc5Oc5c(O)cc(Oc6c(O)cc(Oc7c(O)cc(Oc8c(O)cc(Oc9c(O)cc(Oc%10c(O)cc(Oc%11c(O)cc(O)cc%11O)cc%10O)cc9O)cc8O)cc7O)cc6O)cc5O)c(O)c4)c(O)c3)c(O)c2)c1` [Ishophloroglucin A], for which the “Mode of inhibition” value in assay [1] and in assay [3] was “competitive inhibitors” in each case. Also, the IC50 in assay [1] (setting [8]) amounted to 0.481 ± 0.031 µM; in assay [3] (setting [9]), 1.405 ± 0.007 µM. Further, the “Cell-based inhibitory activity” value in assay [2] and in assay [4] was “greatest inhibitory activity” throughout. In addition, the figures for the “Concentrations with significant and dose-dependent inhibitory activity” value in assay [6] and in assay [7] were 6.29 to 75.52 µM and 12.59 to 75.52 µM, respectively. Further, the CPE reduction activity entry in assay [5] (setting [10]) was “great CPE reduction activity”.

`Oc1cc(O)cc(Oc2c(O)cc3c(c2O)Oc2cc(Oc4c(O)cc(O)cc4O)c(O)c(O)c2O3)c1` [Diphlorethohydroxycarmalol]: the “Mode of inhibition” value in assay [1] and in assay [3] was “competitive inhibitors” in each case. The IC50 in assay [1] (setting [8]) came to 3.12 ± 0.066 µM; in assay [3] (setting [9]) it was 6.637 ± 0.056 µM. For the same compound, the “Cell-based inhibitory activity” value in assay [2] was “significant and dose-dependent inhibitory activities”; in assay [4], “significant and dose-dependent inhibitory activities”. For the same compound, the CPE reduction activity entry in assay [5] (setting [10]) is “great CPE reduction activity”; in assay [5] (at 25 µM), “greatest CPE reduction activity”. For the same compound, the “CPE reduction / inhibitory activity” value in assay [5] is given as “greater activities than IPA”.

As for `Oc1cc(O)c(Oc2cc(O)cc(O)c2-c2c(O)cc(O)cc2Oc2c(O)cc(O)cc2Oc2c(O)cc(O)c3c2Oc2c(O)cc(O)cc2O3)c(O)c1` [Eckmaxol], the “Mode of inhibition” value in assay [1] and in assay [3] was “competitive inhibitors” throughout. Also, the values for the IC50 in assay [1] (setting [8]) and in assay [3] (setting [9]) were 1.89 ± 0.078 µM and 19.83 ± 0.121 µM, respectively. The “Cell-based inhibitory activity” value in assay [2] was “significant and dose-dependent inhibitory activities”; in assay [4] it was “significant and dose-dependent inhibitory activities”. In assay [5] (setting [10]), the CPE reduction activity entry is given as “great CPE reduction activity”. In addition, the “CPE reduction / inhibitory activity” value in assay [5] is listed as “greater activities than IPA”.
